Laboratory results taken from ChEMBL document CHEMBL1201862, “PubChem BioAssay data set” (2004).
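Briefly, cells in 96-well plates were exposed to five compound concentrations for 48 h, and endpoints were estimated by linear interpolation. GI50: concentration for 50% inhibition of growth.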 Active and inactive are the calls of the source. Rule as the data show it: active = GI50 up to about 1.1 µM and inactive = higher.

Assays:
Assay in all cases: NCI tumour cell line growth inhibition, 48 h
HCC 2998 = system: HCC 2998
SNB-19 = system: SNB-19
SK-MEL-28 = system: SK-MEL-28
UO-31 = system: UO-31
HL-60 = system: HL-60
HT-29 = system: HT-29
SK-OV-3 = system: SK-OV-3
COLO 205 = system: COLO 205
SR = system: SR
A498 = system: A498
RXF 393 = system: RXF 393
SK-MEL-2 = system: SK-MEL-2
T47D = system: T47D
CAKI-1 = system: CAKI-1
MDA-MB-435 = system: MDA-MB-435
M14 = system: M14
Hs-578T = system: Hs-578T
U-251 = system: U-251
HCT-116 = system: HCT-116
786-0 = system: 786-0
HOP-62 = system: HOP-62
K562 = system: K562
NCI/ADR-RES = system: NCI/ADR-RES
SNB-75 = system: SNB-75
MOLT-4 = system: MOLT-4
SF-268 = system: SF-268
RPMI-8226 = system: RPMI-8226
ACHN = system: ACHN
BT-549 = system: BT-549
NCI-H23 = system: NCI-H23
UACC-257 = system: UACC-257
CCRF-CEM = system: CCRF-CEM
SF-539 = system: SF-539
OVCAR-5 = system: OVCAR-5
IGROV-1 = system: IGROV-1
NCI-H226 = system: NCI-H226
Malme-3M = system: Malme-3M
NCI-H460 = system: NCI-H460
TK-10 = system: TK-10
UACC-62 = system: UACC-62
SK-MEL-5 = system: SK-MEL-5
HCT-15 = system: HCT-15
KM12 = system: KM12
MDA-MB-231 = system: MDA-MB-231
MCF7 = system: MCF7
SF-295 = system: SF-295
SN12C = system: SN12C
OVCAR-3 = system: OVCAR-3
PC-3 = system: PC-3
SW-620 = system: SW-620
OVCAR-4 = system: OVCAR-4
DU-145 = system: DU-145
HOP-92 = system: HOP-92
A549 = system: A549
OVCAR-8 = system: OVCAR-8
EKVX = system: EKVX

CCOC(=O)C(NC(=O)Nc1ccc(C)cc1)(OCC)C(F)(F)F (configuration not stated)
GI50 (HCC 2998): > 100 µM (inactive)
GI50 (SNB-19): > 100 µM (inactive)
GI50 (SK-MEL-28): > 100 µM (inactive)
GI50 (UO-31): 54.1 µM (inactive)
GI50 (HL-60): 64.4 µM (inactive)
GI50 (HT-29): > 100 µM (inactive)
GI50 (SK-OV-3): > 100 µM (inactive)
GI50 (COLO 205): > 100 µM (inactive)
GI50 (SR): 88.9 µM (inactive)
GI50 (A498): 53.8 µM (inactive)
GI50 (RXF 393): > 100 µM (inactive)
GI50 (SK-MEL-2): > 100 µM (inactive)
GI50 (T47D): > 100 µM (inactive)
GI50 (CAKI-1): 1.18 µM (inactive)
GI50 (MDA-MB-435): > 100 µM (inactive)
GI50 (M14): > 100 µM (inactive)
GI50 (Hs-578T): 71.4 µM (inactive)
GI50 (U-251): > 100 µM (inactive)
GI50 (HCT-116): > 100 µM (inactive)
GI50 (786-0): > 100 µM (inactive)
GI50 (HOP-62): 26.5 µM (inactive)
GI50 (K562): > 100 µM (inactive)
GI50 (NCI/ADR-RES): 42.3 µM (inactive)
GI50 (SNB-75): > 100 µM (inactive)
GI50 (MOLT-4): > 100 µM (inactive)
GI50 (SF-268): > 100 µM (inactive)
GI50 (RPMI-8226): > 100 µM (inactive)
GI50 (ACHN): 56.5 µM (inactive)
GI50 (BT-549): > 100 µM (inactive)
GI50 (NCI-H23): > 100 µM (inactive)
GI50 (UACC-257): > 100 µM (inactive)
GI50 (CCRF-CEM): > 100 µM (inactive)
GI50 (SF-539): > 100 µM (inactive)
GI50 (OVCAR-5): > 100 µM (inactive)
GI50 (IGROV-1): > 100 µM (inactive)

O=C1Cc2c([nH]c3ccccc23)C2(CC3CCCCN13)OCCO2 (configuration not stated)
GI50 (NCI-H226): > 100 µM (inactive)
GI50 (HCC 2998): 90.6 µM (inactive)
GI50 (Malme-3M): 62.2 µM (inactive)
GI50 (NCI-H460): > 100 µM (inactive)
GI50 (SNB-19): > 100 µM (inactive)
GI50 (TK-10): > 100 µM (inactive)
GI50 (UACC-62): 76.9 µM (inactive)
GI50 (SK-MEL-28): > 100 µM (inactive)
GI50 (UO-31): > 100 µM (inactive)
GI50 (SK-MEL-5): > 100 µM (inactive)
GI50 (HCT-15): > 100 µM
GI50 (HT-29): > 100 µM (inactive)
GI50 (KM12): > 100 µM (inactive)
GI50 (SK-OV-3): > 100 µM (inactive)
GI50 (MDA-MB-231): 84.5 µM (inactive)
GI50 (COLO 205): > 100 µM (inactive)
GI50 (MCF7): > 100 µM (inactive)
GI50 (SR): > 100 µM (inactive)
GI50 (A498): > 100 µM (inactive)
GI50 (RXF 393): 29.2 µM (inactive)
GI50 (SK-MEL-2): > 100 µM (inactive)
GI50 (T47D): > 100 µM (inactive)
GI50 (SF-295): > 100 µM (inactive)
GI50 (CAKI-1): > 100 µM (inactive)
GI50 (MDA-MB-435): > 100 µM (inactive)
GI50 (SN12C): > 100 µM (inactive)
GI50 (OVCAR-3): > 100 µM (inactive)
GI50 (M14): > 100 µM (inactive)
GI50 (PC-3): > 100 µM (inactive)
GI50 (Hs-578T): 89.9 µM (inactive)
GI50 (U-251): > 100 µM (inactive)
GI50 (HCT-116): > 100 µM (inactive)
GI50 (SW-620): > 100 µM (inactive)
GI50 (OVCAR-4): > 100 µM (inactive)
GI50 (786-0): > 100 µM (inactive)
GI50 (HOP-62): > 100 µM (inactive)
GI50 (DU-145): > 100 µM (inactive)
GI50 (NCI/ADR-RES): > 100 µM (inactive)
GI50 (HOP-92): 34.2 µM (inactive)
GI50 (A549): > 100 µM (inactive)
GI50 (SNB-75): 62.8 µM (inactive)
GI50 (SF-268): > 100 µM (inactive)
GI50 (RPMI-8226): > 100 µM (inactive)
GI50 (ACHN): > 100 µM (inactive)
GI50 (OVCAR-8): > 100 µM (inactive)
GI50 (BT-549): > 100 µM (inactive)
GI50 (NCI-H23): > 100 µM (inactive)
GI50 (UACC-257): > 100 µM (inactive)
GI50 (CCRF-CEM): 90.4 µM (inactive)
GI50 (OVCAR-5): > 100 µM (inactive)
GI50 (EKVX): > 100 µM (inactive)
GI50 (IGROV-1): 45.2 µM (inactive)
